target: Human FXIa (Homo sapiens (Human), UniProt P03951); experiment: Determination of the % inhibition for FXIa; assay type: biochemical; settings: 40 μM test compound, 25° C., substrate Z-Gly-Pro-Arg-AFC
Description: Determination of the % inhibition for FXIa
Human FXIa (Enzyme Research Laboratories) was incubated at 25° C. with the fluorogenic substrate Z-Gly-Pro-Arg-AFC and 40 μM of the test compound. Residual enzyme activity (initial rate of reaction) was determined by measuring the change in […].

Sequence of Human FXIa (P03951 388-625): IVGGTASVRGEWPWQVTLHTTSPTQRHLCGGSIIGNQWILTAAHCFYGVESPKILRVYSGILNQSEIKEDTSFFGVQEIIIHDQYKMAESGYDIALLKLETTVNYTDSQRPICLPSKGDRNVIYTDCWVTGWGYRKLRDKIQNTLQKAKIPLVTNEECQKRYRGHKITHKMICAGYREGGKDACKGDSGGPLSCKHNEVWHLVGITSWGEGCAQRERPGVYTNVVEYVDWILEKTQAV
Sequence of Human FXIa (P03951 19-387 partner): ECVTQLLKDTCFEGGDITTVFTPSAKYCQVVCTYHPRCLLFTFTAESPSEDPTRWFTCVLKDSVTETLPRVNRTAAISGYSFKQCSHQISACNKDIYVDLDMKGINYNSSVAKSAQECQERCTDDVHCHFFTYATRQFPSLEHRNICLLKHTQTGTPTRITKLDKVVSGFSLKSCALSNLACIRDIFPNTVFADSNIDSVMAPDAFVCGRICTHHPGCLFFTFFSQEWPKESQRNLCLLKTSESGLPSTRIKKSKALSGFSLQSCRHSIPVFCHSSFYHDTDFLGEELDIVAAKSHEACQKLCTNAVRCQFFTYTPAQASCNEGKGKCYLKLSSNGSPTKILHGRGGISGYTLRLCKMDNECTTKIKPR

First: NC(=O)c1cccc(CNC(=O)c2cn(Cc3ccc(Cn4ccccc4=O)cc3)nc2C2CC2)c1 [Example 49, N-[(3-carbamoylphenyl)methyl]-3-cyclopropyl-1-({4-[(2-oxopyridin-1-yl)methyl]phenyl}methyl)pyrazole-4-carboxamide]
Second: COc1cccc(CNC(=O)c2cn(Cc3ccc(Cn4ccccc4=O)cc3)nc2C2CC2)c1F [Example 52, 3-cyclopropyl-N-[(2-fluoro-3-methoxyphenyl)methyl]-1-({4-[(2-oxopyridin-1-yl)methyl]phenyl}methyl)pyrazole-4-carboxamide]
The “% Inhibition @ 40 μM (human FXIa)” value of the first is lower: 0% for the first, 1% for the second.

In the case of `Nc1nn(Cc2ccc(Cn3ccccc3=O)cc2)cc1C(=O)NCc1ccc(OC(F)(F)F)cc1` [Example 58, 3-amino-1-({4-[(2-oxopyridin-1-yl)methyl]phenyl}methyl)-N-{[4-(trifluoromethoxy)phenyl]methyl}pyrazole-4-carboxamide], the “% Inhibition @ 40 μM (human FXIa)” value is reported as 0%.

Source: patent US11198691B2, “N-((het)arylmethyl)-heteroaryl-carboxamides compounds as kallikrein inhibitors” (KalVista Pharmaceuticals Limited, priority 2014, dated 2021)
